Test results taken from patent US9809604B2, “DGAT1 inhibitor and preparation method and use thereof” (Qingdao Huanghai Pharmaceutical Co., Ltd., priority 2013, dated 2017).
Like-named read-outs stand apart in the source and are kept apart here.

Biological target: T1, DGAT1 (Homo sapiens, UniProt O75907)
T1 sequence (O75907 1-488): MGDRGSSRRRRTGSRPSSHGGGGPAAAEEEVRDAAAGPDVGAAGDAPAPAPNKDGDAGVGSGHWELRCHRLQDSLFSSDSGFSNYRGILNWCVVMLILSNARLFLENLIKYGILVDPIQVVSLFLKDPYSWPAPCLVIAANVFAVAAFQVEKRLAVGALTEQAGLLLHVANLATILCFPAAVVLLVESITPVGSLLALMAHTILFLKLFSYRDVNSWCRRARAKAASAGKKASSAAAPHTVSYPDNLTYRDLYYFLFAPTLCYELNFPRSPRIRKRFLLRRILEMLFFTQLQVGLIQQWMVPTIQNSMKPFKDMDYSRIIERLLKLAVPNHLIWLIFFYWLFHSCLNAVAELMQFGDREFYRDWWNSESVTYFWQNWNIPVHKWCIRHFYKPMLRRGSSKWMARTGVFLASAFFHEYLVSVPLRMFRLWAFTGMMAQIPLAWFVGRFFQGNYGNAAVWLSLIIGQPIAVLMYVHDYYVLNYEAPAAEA
Assay: Human DGAT1 IC50 enzyme assay (Flashplate, 14C-labeled acyl-CoA)
Type: biochemical
Parameters: made in house
Procedure: The ability of compounds to inhibit DGAT enzyme activity is determined by calculating IC50 values of test compounds. Ki values of DGAT1 are calculated as follows: Cheng-Prusoff equation: Ki=IC50/(1+[S]/Km)
(1) Human DGAT1 IC50 (nM) Experiment
Human DGAT1 activity was determined as follows:
Expressing human DGAT1 enzyme, used diacylglycerol and 14C-labeled acyl-CoA as the substrate, choose PE Company Flashplate testing board to build DGAT1 enzyme reaction system. 14C-labeled acyl-CoA binds to diacylglycerol by covalent bonding after enzymology reaction, and generates the product of 14C-labeled triglyceride. 14C-labeled acyl-CoA substrate is dissolved in reaction solution and 14C-labeled triglyceride product combine with phospholipids of Flashplate plate bottom layer, thus effectively separate labeled substrates and products. The radioactive of 14C-labeled triglyceride which is combined with phospholipid layer is counted, and the potencies of DGAT-1 inhibition for the compounds are determined by calculating the IC50 values.

[1] = average of first and second, read-out: hDGAT1 IC50(nM) Average
[2] = first determination, read-out: hDGAT1 IC50(nM) First
[3] = second determination, read-out: hDGAT1 IC50(nM) Second

Work on Nc1ncnc2c1C(=O)N(c1ccc3c(c1)CCC(OCC(F)(F)F)C3)CCO2 (single isomer, unassigned) [Compound 108 (peak2), 4-amino-6-(6-(2,2,2-trifluoroethoxy)-5,6,7,8-tetrahydonaphthalen-2-yl)-7,8-dihydropyrimido[5,4-f][1,4]oxazepin-5-(6H)-one] yielded an IC50 [1] of 52.6 nM, an IC50 [2] of 56.4 nM and an IC50 [3] of 48.8 nM.
Nc1ncnc2c1C(=O)N(c1ccc3c(c1)CCC(OCC(F)(F)F)C3)CCO2 (single isomer, unassigned; peak1) [Compound 105 (peak1), 4-amino-6-(6-(2,2,2-trifluoroethoxy)-5,6,7,8-tetrahydonaphthalen-2-yl)-7,8-dihydropyrimido[5,4-f][1,4]oxazepin-5-(6H)-one] gave an IC50 [1] of 73.3 nM, an IC50 [2] of 103 nM and an IC50 [3] of 43.3 nM.
Nc1ncnc2c1C(=O)N(c1ccc(N3CCN(CC(=O)O)C3=O)c(Cl)c1)CCO2 [Compound 1, 2-(3-(4-(4-amino-5-oxo-7,8-dihydropyrimido[5,4-f][1,4]oxazepin-6(5H)-yl)-2-chlorophenyl)-2-oxoimidazolidin-1-yl)acetic acid] gave an IC50 [1] of 48.1 nM, an IC50 [2] of 53.3 nM and an IC50 [3] of 43 nM.
In the case of Nc1ncnc2c1C(=O)N(c1ccc(N3CCN(CC(=O)O)C3=O)c(F)c1)CCO2 [Compound 2, 2-(3-(4-(4-amino-5-oxo-7,8-dihydropyrimido[5,4-f][1,4]oxazepin-6(5H)-yl)-2-fluorophenyl)-2-oximidazolidin-1-yl)acetate acid], the IC50 [1] was 52.9 nM, the IC50 [2] was 64.1 nM and the IC50 [3] was 41.6 nM.
Cc1cc(N2CCOc3ncnc(N)c3C2=O)ccc1N1CCN(CC(=O)O)C1=O [Compound 3, 2-(3-(4-(4-amino-5-oxo-7,8-dihydropyrimido[5,4-f][1,4]oxazepin-6(5H)-yl)-2-methylphenyl)-2-oxoimidazolidin-1-yl)acetate acid] was tested, and the IC50 [1] was 65.2 nM, the IC50 [2] was 60.9 nM and the IC50 [3] was 69.5 nM.
Work on CCc1cc(N2CCOc3ncnc(N)c3C2=O)cc(C)c1N1CCN(CC(=O)O)C1=O [Compound 4, 2-(3-(4-(4-amino-5-oxo-7,8-dihydropyrimido[5,4-f][1,4]oxazepin-6(5H)-yl)-2-ethyl-6-methylphenyl)-2-oxoimidazolidin-1-yl)acetic acid] yielded an IC50 [1] of 39.5 nM, an IC50 [2] of 46.2 nM and an IC50 [3] of 32.9 nM.
With CCc1cc(N2CCOc3ncnc(N)c3C2=O)ccc1N1CCN(CC(=O)O)C1=O [Compound 5, 2-(3-(4-(4-amino-5-oxo-7,8-dihydropyrimido[5,4-f][1,4]oxazepin-6(5H)-yl)-2-ethylphenyl)-2-oxoimidazolidin-1-yl)acetic acid] the IC50 [1] was 60.3 nM, the IC50 [2] was 51.6 nM and the IC50 [3] was 69 nM.
Molecule Nc1ncnc2c1C(=O)N(c1ccc(N3CCN(CCC(=O)O)C3=O)c(Cl)c1)CCO2 [Compound 6] has an IC50 [1] of 31.5 nM, an IC50 [2] of 24.4 nM and an IC50 [3] of 38.5 nM.
Nc1ncnc2c1C(=O)N(c1ccc(N3CCN(CC(=O)O)C3=O)c(OC(F)(F)F)c1)CCO2 [Compound 7, 2-(3-(4-(4-amino-5-oxo-7,8-dihydropyrimido[5,4-f][1,4]oxazepin-6(5H)-yl)-2-(trifluoromethoxy)phenyl)-2-oxoimidazolidin-1-yl)acetic acid] showed an IC50 [1] of 36.9 nM, an IC50 [2] of 43.5 nM and an IC50 [3] of 30.4 nM.
Molecule Nc1ncnc2c1C(=O)N(c1ccc(N3CCN(CC(F)(F)F)C3=O)c(Cl)c1)CCO2 [Compound 8, 4-amino-6-(3-chloro-4-(2-oxo-3-(2,2,2-trifluoroethyl)imidazolidin-1-yl)phenyl)-7,8-dihydropyrimido[5,4-f][1,4]oxazepin-5(6H)one] has an IC50 [1] of 38.9 nM, an IC50 [2] of 41.9 nM and an IC50 [3] of 35.9 nM.
Work on CCc1cc(N2CCOc3ncnc(N)c3C2=O)cc(CC)c1N1CCN(CC(=O)O)C1=O [Compound 19] yielded an IC50 [1] of 101 nM, an IC50 [2] of 136 nM and an IC50 [3] of 66.5 nM.
With Nc1ncnc2c1C(=O)N(c1ccc(N3CCN(CC(=O)O)C3=O)c(C(F)(F)F)c1)CCO2 [Compound 25, 2-(3-(4-(4-amino-5-oxo-7,8-dihydropyrimido [5,4-f][1,4]oxazepin-6(5H)-yl)-2-(trifluoromethyl)phenyl)-2-oxoimidazolidin-1-yl)acetic acid] the IC50 [1] was 58.9 nM, the IC50 [2] was 57.2 nM and the IC50 [3] was 60.7 nM.
Cc1cc(N2CCOc3ncnc(N)c3C2=O)cc(F)c1N1CCN(CC(=O)O)C1=O [Compound 26, 2-(3-(4-(4-amino-5-oxo-7,8-dihydropyrimido [5,4-f][1,4]oxazepin-6(5H)-yl)-2-fluoro-6-methylphenyl)-2-oxoimidazolidin-1-yl) acetic acid] showed an IC50 [1] of 50.6 nM, an IC50 [2] of 41.3 nM and an IC50 [3] of 60 nM.
Molecule Cc1cc(N2CCOc3ncnc(N)c3C2=O)cc(Cl)c1N1CCN(CC(=O)O)C1=O [Compound 27] has an IC50 [1] of 62.4 nM, an IC50 [2] of 69 nM and an IC50 [3] of 55.7 nM.
With Nc1ncnc2c1C(=O)N(c1ccc(-n3ccn(CC(=O)O)c3=O)c(Cl)c1)CCO2 [Compound 28, 2-(3-(4-(4-amino-5-oxo-7,8-dihydropyrimido [5,4-f][1,4]oxazepin-6(5H)-yl)-2-chlorophenyl)-2-oxo-2,3-dihydro-1H-imidazol-1-yl)acetic acid] the IC50 [1] was 41.8 nM, the IC50 [2] was 45.6 nM and the IC50 [3] was 37.9 nM.
With CC(C)CN1CCN(c2ccc(N3CCOc4ncnc(N)c4C3=O)cc2Cl)C1=O [Compound 29, 4-amino-6-(3-chloro-4-(3-isobutyl-2-oxoimidazolidin-1-yl)phenyl)-7,8-dihydropyrimido [5,4-f][1,4]oxazepin-5(6H)-one] the IC50 [1] was 35.2 nM, the IC50 [2] was 37.4 nM and the IC50 [3] was 32.9 nM.
For Nc1ncnc2c1C(=O)N(c1ccc(N3CCN(CC4CC4)C3=O)c(Cl)c1)CCO2 [Compound 30, 4-amino-6-(3-chloro-4-(3-(cyclopropylmethyl)-2-oxoimidazolidin-1-yl)phenyl)-7,8-dihydropyrimido [5,4-f][1,4]oxazepin-5(6H)-one], the IC50 [1] was 24.4 nM, the IC50 [2] was 25.4 nM and the IC50 [3] was 23.4 nM.
Work on CC(C)(F)CN1CCN(c2ccc(N3CCOc4ncnc(N)c4C3=O)cc2Cl)C1=O [Compound 31, 4-amino-6-(3-chloro-4-(3-(2-fluoro-2-methylpropyl)-2-oxoimidazolidin-1-yl)phenyl)-7,8-dihydropyrimido[5,4-f][1,4]oxazepin-5(6H)-one] yielded an IC50 [1] of 23.5 nM, an IC50 [2] of 23.6 nM and an IC50 [3] of 23.4 nM.
In the case of CC(C)(C(=O)O)n1cc(-c2ccc(N3CCOc4ncnc(N)c4C3=O)cc2Cl)cn1 [Compound 33, 2-(4-(4-(4-amino-5-oxo-7,8-dihydropyrimido[5,4-f][1,4]oxazepin-6(5H)-yl)-2-chlorophenyl)-1H-pyrazol-1-yl)-2-methylpropanoic acid], the IC50 [1] was 36.8 nM, the IC50 [2] was 26.9 nM and the IC50 [3] was 46.7 nM.
Molecule CC(C(=O)O)n1cc(-c2ccc(N3CCOc4ncnc(N)c4C3=O)cc2Cl)cn1 (stereo not drawn) [Compound 34, 2-(4-(4-(4-amino-5-oxo-7,8-dihydropyrimido[5,4-f][1,4]oxazepin-6(5H)-yl)-2-chlorophenyl)-1H-pyrazol-1-yl) propanoic acid] has an IC50 [1] of 55.8 nM, an IC50 [2] of 78 nM and an IC50 [3] of 33.6 nM.
In the case of Nc1ncnc2c1C(=O)N(c1ccc(-c3cnn(CCC(=O)O)c3)c(Cl)c1)CCO2 [Compound 35, 3-(4-(4-(4-amino-5-oxo-7,8-dihydropyrimido[5,4-f][1,4]oxazepin-6(5H)-yl)-2-chlorophenyl)-1H-pyrazol-1-yl)propanoic acid], the IC50 [1] was 25.8 nM, the IC50 [2] was 24.8 nM and the IC50 [3] was 26.7 nM.
